The subject of assay [1] is H1975 (EGFR T790M/L858R) cell proliferation. Put plainly: H1975 proliferation assay (Cell Titer-Glo). Conditions: NCI-H1975 cells, 72 hour incubation, read-out: H1975 antiproliferative EC50. The format is cell-based. The procedure: H1975 Proliferation Assays
All cell culture reagents were purchased from Invitrogen/Gibco. Cells are cultured at 37° C. at 5% CO2 and split as recommended by ATCC.
For orientation: ATP-based viability assays read luminescence as a measure of living cells.

The next assay deals with T1, EGFR del746-750 T790M (Homo sapiens, UniProt P00533, DEL746-750/T790M).
T1 construct: purchased Carna Biosciences 08-528
T1 sequence (P00533 with tags, fused parts or gaps DEL746-750/T790M limits assumed): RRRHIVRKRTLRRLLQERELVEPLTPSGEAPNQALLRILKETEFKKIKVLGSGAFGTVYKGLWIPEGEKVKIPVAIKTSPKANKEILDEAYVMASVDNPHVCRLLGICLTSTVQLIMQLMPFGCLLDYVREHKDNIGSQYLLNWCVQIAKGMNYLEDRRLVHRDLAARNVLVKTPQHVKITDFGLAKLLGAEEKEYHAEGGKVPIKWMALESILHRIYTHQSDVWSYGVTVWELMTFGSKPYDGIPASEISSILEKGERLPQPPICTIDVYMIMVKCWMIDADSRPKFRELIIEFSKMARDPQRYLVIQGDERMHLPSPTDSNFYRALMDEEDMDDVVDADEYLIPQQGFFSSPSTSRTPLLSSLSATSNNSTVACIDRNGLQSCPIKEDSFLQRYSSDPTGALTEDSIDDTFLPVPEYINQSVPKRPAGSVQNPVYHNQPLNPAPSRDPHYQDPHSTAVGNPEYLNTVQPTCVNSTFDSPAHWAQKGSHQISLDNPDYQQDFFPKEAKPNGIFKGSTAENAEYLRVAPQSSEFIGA
Put plainly: EGFR del746-750 T790M biochemical assay (Caliper mobility shift). The note with it: 5 μM ATP; apparent Ki (Morrison fit) converted by Cheng-Prusoff, Km of ATP 2.1 μM; read-out: EGFR(T790M/d746-750) Ki. An outline of the steps:
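Caliper mobility-shift read-out, with product electrophoretically resolved from substrate and measured. Reactions were quenched with 80 mM EDTA after 30 min at 22 °C.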

The target of a further assay is T2, EGFR T790M L858R (Homo sapiens, UniProt P00533, L858R/T790M).
T2 construct: purchased Life Technologies PV4879
T2 sequence (P00533 25-1210 T790M/L858R): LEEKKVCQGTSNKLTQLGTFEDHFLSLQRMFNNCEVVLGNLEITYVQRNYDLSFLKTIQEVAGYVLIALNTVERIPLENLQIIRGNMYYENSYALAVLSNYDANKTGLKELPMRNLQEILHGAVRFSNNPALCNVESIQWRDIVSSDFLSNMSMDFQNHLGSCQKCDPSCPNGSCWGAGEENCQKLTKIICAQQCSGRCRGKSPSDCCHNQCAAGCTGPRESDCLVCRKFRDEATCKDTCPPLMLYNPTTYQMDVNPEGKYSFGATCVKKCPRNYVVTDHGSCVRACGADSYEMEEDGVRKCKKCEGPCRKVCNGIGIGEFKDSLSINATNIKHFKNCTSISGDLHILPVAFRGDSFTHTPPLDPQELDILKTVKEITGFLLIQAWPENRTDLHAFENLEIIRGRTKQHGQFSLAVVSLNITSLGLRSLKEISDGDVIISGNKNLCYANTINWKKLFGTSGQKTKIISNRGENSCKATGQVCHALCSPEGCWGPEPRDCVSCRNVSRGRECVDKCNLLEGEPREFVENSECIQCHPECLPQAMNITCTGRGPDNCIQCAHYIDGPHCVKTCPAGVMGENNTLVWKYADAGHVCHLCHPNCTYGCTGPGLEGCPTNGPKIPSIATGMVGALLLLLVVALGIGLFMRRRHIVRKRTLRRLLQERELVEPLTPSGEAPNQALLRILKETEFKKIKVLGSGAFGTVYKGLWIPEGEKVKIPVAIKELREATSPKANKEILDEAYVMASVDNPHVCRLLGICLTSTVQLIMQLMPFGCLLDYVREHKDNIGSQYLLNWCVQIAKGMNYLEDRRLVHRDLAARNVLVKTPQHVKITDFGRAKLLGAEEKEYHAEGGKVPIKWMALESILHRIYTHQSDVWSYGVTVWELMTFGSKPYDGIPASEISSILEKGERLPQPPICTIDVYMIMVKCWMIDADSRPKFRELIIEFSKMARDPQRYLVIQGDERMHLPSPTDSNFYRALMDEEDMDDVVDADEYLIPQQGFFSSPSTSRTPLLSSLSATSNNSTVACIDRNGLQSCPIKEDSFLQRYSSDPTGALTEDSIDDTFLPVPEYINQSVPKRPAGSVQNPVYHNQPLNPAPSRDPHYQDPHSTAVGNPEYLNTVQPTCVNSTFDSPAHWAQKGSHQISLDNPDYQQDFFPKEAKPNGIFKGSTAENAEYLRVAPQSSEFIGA
Put plainly: EGFR T790M L858R biochemical assay (Caliper mobility shift). Conditions: 5 μM ATP; apparent Ki (Morrison fit) converted by Cheng-Prusoff, Km of ATP 1.3 μM. The essentials: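 Caliper mobility-shift read-out, electrophoretic separation of substrate from product, after a 30-minute kinase reaction at 22 °C. EDTA at 80 mM terminates each reaction.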

In assay [2] the target is T3, phosphor-EGFR in H1975(L585R/T790M) mutant EGFR expressing cells (Homo sapiens, UniProt P00533, L858R/T790M).
T3 construct: host or cells: NCI-H1975
T3 sequence (P00533 25-1210 T790M/L858R): as above
Put plainly: H1975 pEGFR MSD cellular assay. Type of assay: cell-based. Conditions: NCI-H1975 cells, serum starved, 1 hour compound incubation, pEGFR Tyr1068 MSD; read-out: HI975 pEGFR EC50. The essentials:
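Phospho-EGFR read by MSD electrochemiluminescence: capture with anti-pEGFR antibody (overnight, 4° C), detection with SULFO-TAG anti-total EGFR (1 hour, room temperature). Before lysis, H1975 cells starved of serum overnight got compound for 1 hour at 37° C, 0.5% DMSO final. EC50 via four-parameter logistic regression of percent inhibition.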

For 18 molecules, EC50 and Ki results are on record in US9951064B2, “Azaindazole compounds as inhibitors of T790M containing EGFR mutants” (Genentech, Inc., priority 2013, dated 2018).

Read-outs that look alike come from different tables or passages of the source. Some results are limits rather than exact numbers.

For orientation: EC50 means the concentration at which the effect is half-maximal. `CC[C@@H](C)n1nc(N2CC3(COC3)C2)c2cnc(Nc3ccnc(N4CC[C@@](C)(O)[C@@H](F)C4)n3)cc21` (single isomer, unassigned) [Example 68, (3R*,4S*)-1-{4-[1-((R)-sec-Butyl)-3-(2-oxa-6-azaspiro[3.3]hept-6-yl)-1H-pyrazolo[4,3-c]pyridin-6-ylamino]pyrimidin-2-yl}-3-fluoro-4-methylpiperidin-4-ol]: the half-maximal effective concentration (EC50) in assay [1] (Homo sapiens, NCI-H1975, 72 h) is 851 nM; in assay [2], 157 nM. Also, the Ki on EGFR del746-750 T790M was found to be 10.2 nM; on EGFR T790M L858R, 3.2 nM.

As to `CC(C)n1nc(N2CCC(O)C2)c2cnc(Nc3ccnc(N4CC[C@@H](O)[C@@H](F)C4)n3)cc21` (single isomer, unassigned) [Example 105, (3S*,4R*)-3-fluoro-1-(4-((3-((R)-3-hydroxypyrrolidin-1-yl)-1-isopropyl-1H-pyrazolo[4,3-c]pyridin-6-yl)amino)pyrimidin-2-yl)piperidin-4-ol], the 50% effective concentration (EC50) in assay [1] (Homo sapiens, NCI-H1975, 72 h) worked out at 213 nM; in assay [2], 129 nM. The results for the Ki at EGFR del746-750 T790M and at EGFR T790M L858R were 2.7 nM and 1.2 nM, respectively.

With `CCC(C)n1nc(N2CC(C(C)(C)O)C2)c2cnc(Nc3ccnc(N4CC[C@@H](O)[C@@H](F)C4)n3)cc21` (single isomer, unassigned) [Example 193, (3S,4R)-1-(4-((1-((R*)-sec-Butyl)-3-(3-(2-hydroxypropan-2-yl)azetidin-1-yl)-1H-pyrazolo[4,3-c]pyridin-6-yl)amino)pyrimidin-2-yl)-3-fluoropiperidin-4-ol], the EC50 was determined as 334 nM in assay [1] (Homo sapiens, NCI-H1975, 72 h) and 129 nM in assay [2]. In addition, the Ki came out at 5.6 nM at EGFR del746-750 T790M and 1.8 nM on EGFR T790M L858R.

Turning to `CCC(C)n1nc(N2CC3(COC3)C2)c2cnc(Nc3ccnc(N4CC[C@@H](O)[C@@H](F)C4)n3)cc21` (single isomer, unassigned) [Example 197, (3S,4R)-1-(4-((1-((R*)-sec-Butyl)-3-(2-oxa-6-azaspiro[3.3]heptan-6-yl)-1H-pyrazolo[4,3-c]pyridin-6-yl)amino)pyrimidin-2-yl)-3-fluoropiperidin-4-ol], the values for the EC50 in assay [1] and in assay [2] were 149 nM and 12.8 nM, respectively. In addition, the Ki on EGFR del746-750 T790M amounted to 2.7 nM; on EGFR T790M L858R, 1.2 nM.

With `CCC(C)n1nc(N2CC3(COC3)C2)c2cnc(Nc3ccnc(N4CC[C@@H](O)[C@@H](F)C4)n3)cc21` (single isomer, unassigned) [Example 198, (3S,4R)-1-(4-((1-((S*)-sec-Butyl)-3-(2-oxa-6-azaspiro[3.3]heptan-6-yl)-1H-pyrazolo[4,3-c]pyridin-6-yl)amino)pyrimidin-2-yl)-3-fluoropiperidin-4-ol], the EC50 stood at 348 nM in assay [1] and 16.4 nM in assay [2]. The Ki worked out at 3.1 nM on EGFR del746-750 T790M and 1.5 nM on EGFR T790M L858R.

For the molecule `CC(C)n1nc(N2CCC(O)C2=O)c2cnc(Nc3ccnc(-c4cnn(S(=O)(=O)C5CC5)c4)n3)cc21` (stereo in doubt) [Example 199, (S)-1-(6-((2-(1-(Cyclopropylsulfonyl)-1H-pyrazol-4-yl)pyrimidin-4-yl)amino)-1-isopropyl-1H-pyrazolo[4,3-c]pyridin-3-yl)-3-hydroxypyrrolidin-2-one], the EC50 in assay [1] (Homo sapiens, NCI-H1975, 72 h) stood at 630 nM; in assay [2], 230 nM. For the same molecule, the Ki at EGFR del746-750 T790M and at EGFR T790M L858R was 1.5 nM throughout.

`COC1CCN(c2nccc(Nc3cc4c(cn3)c(N3CC5(COC5)C3)nn4C(C)C)n2)CC1` [Example 2, 1-Isopropyl-N-(2-(4-methoxypiperdin-1-yl)pyrimidin-4-yl)-3-(2-oxa-6-azaspiro[3.3]heptan-6-yl)-1H-pyrazolo[4,3-c]pyridine-6-amine]: the EC50 came out at 388 nM in assay [1] (Homo sapiens, NCI-H1975, 72 h) and 81.7 nM in assay [2]. Moreover, the Ki came out at 9.7 nM at EGFR del746-750 T790M and 2.1 nM at EGFR T790M L858R.

With `CC(C)n1nc(N2CC3(COC3)C2)c2cnc(Nc3ccnc(N4CCC(O)C(C)(C)C4)n3)cc21` (stereo not drawn) [Example 3, 1-(4-((1-Isopropyl-3-(2-oxa-6-azaspiro[3.3]heptan-6-yl)-1H-pyrazolo[4,3-c]pyridin-6-yl)amino)pyrimidin-2-yl)-3,3-dimethylpiperidin-4-ol], the concentration giving a half-maximal response (EC50) in assay [1] (Homo sapiens, NCI-H1975, 72 h) worked out at 159 nM; in assay [2] it was 38.6 nM. Besides, the Ki at EGFR del746-750 T790M came to 1.6 nM; on EGFR T790M L858R, 1.4 nM.

For the molecule `CC(C)n1nc(NCCO)c2cnc(Nc3ccnc(-c4cnn(S(=O)(=O)C5CC5)c4)n3)cc21` [Example 6, 2-((6-((2-(1-(Cyclopropylsulfonyl)-1H-pyrazol-4-yl)pyrimidin-4-yl)amino)-1-isopropyl-1H-pyrazolo[4,3-c]pyridin-3-yl)amino)ethanol], the half-maximal effective concentration (EC50) is 877 nM in assay [1] (Homo sapiens, NCI-H1975, 72 h) and 73.8 nM in assay [2]. Further, the Ki at EGFR del746-750 T790M was found to be 1.2 nM; at EGFR T790M L858R, 0.9 nM.

For the molecule `CC(C)n1nc(N2CCCC2)c2cnc(Nc3ccnc(N4CCC(O)C(C)(C)C4)n3)cc21` (stereo not drawn) [Example 8, 1-(4-((1-Isopropyl-3-(pyrrolidin-1-yl)-1H-pyrazolo[4,3-c]pyridin-6-yl)amino)pyrimidin-2-yl)-3,3-dimethylpiperidin-4-ol], the EC50 in assay [1] (Homo sapiens, NCI-H1975, 72 h) was 499 nM; in assay [2] it was 30.3 nM. The Ki on EGFR del746-750 T790M and at EGFR T790M L858R was 1.3 nM in each case.

On to `Cc1cn[nH]c1-c1nn(C(C)C)c2cc(Nc3ccnc(N4CCC(O)C(C)(C)C4)n3)ncc12` (stereo not drawn) [Example 10, 1-(4-((1-Isopropyl-3-(4-methyl-1H-pyrazol-5-yl)-1H-pyrazolo[4,3-c]pyridin-6-yl)amino)pyrimidin-2-yl)-3,3-dimethylpiperidin-4-ol], for which the 50% effective concentration (EC50) is 1710 nM in assay [1] (Homo sapiens, NCI-H1975, 72 h) and 349 nM in assay [2]. Moreover, the Ki on EGFR del746-750 T790M is 32.4 nM; at EGFR T790M L858R, 7.5 nM.

Consider `COC1CCN(c2nccc(Nc3cc4c(cn3)c(N3CCCC3)nn4C(C)C)n2)CC1` [Example 15, 1-Isopropyl-N-(2-(4-methoxypiperidin-1-yl)pyrimidin-4-yl)-3-(pyrrolidin-1-yl)-1H-pyrazolo[4,3-c]pyridin-6-amine], for which the EC50 in assay [1] (Homo sapiens, NCI-H1975, 72 h) turned out to be 380 nM; in assay [2] it was 26.6 nM. The Ki at EGFR del746-750 T790M came out at 2.8 nM; at EGFR T790M L858R, 1.2 nM.

`CCS(=O)(=O)n1cc(-c2nccc(Nc3cc4c(cn3)c(N3CC(C(=O)N(C)C)C3)nn4C(C)C)n2)cn1` [Example 17, 1-(6-(2-(1-(Ethylsulfonyl)-1H-pyrazol-4-yl)pyrimidin-4-ylamino)-1-isopropyl-1H-pyrazolo[4,3-c]pyridin-3-yl)-N, N-dimethylazetidine-3-carboxamide]: the EC50 stood at 236 nM in assay [1] (Homo sapiens, NCI-H1975, 72 h) and 19.2 nM in assay [2]. Further, the Ki on EGFR del746-750 T790M is 0.8 nM; on EGFR T790M L858R it was 0.7 nM.

Take `CC(C)n1nc(N2CCC(O)C2)c2cnc(Nc3ccnc(-c4cnn(S(=O)(=O)C5CC5)c4)n3)cc21` (stereo not drawn) [Example 18, 1-(6-(2-(1-(Cyclopropylsulfonyl)-1H-pyrazol-4-yl)pyrimidin-4-ylamino)-1-isopropyl-1H-pyrazolo[4,3-c]pyridin-3-yl) pyrrolidin-3-ol]: the EC50 was 201 nM in assay [1] (Homo sapiens, NCI-H1975, 72 h) and 7.5 nM in assay [2]. For the same molecule, the Ki on EGFR del746-750 T790M was found to be 0.6 nM; on EGFR T790M L858R, 0.8 nM.

For `COC1CCN(c2nccc(Nc3cc4c(cn3)c(N)nn4C[C@H]3CC[C@H](N)CC3)n2)CC1` [Example 24, 1-(4-(Aminocyclohexyl)methyl)-N^6-[2-(4-methoxypiperidin-1-yl)-pyrimidin-4-yl]-1H-pyrazolo[4,3-c]pyridine-3,6-diamine], the 50% effective concentration (EC50) is more than 10000 nM in assay [1] (Homo sapiens, NCI-H1975, 72 h) and 2060 nM in assay [2]. In addition, the Ki on EGFR del746-750 T790M turned out to be 9.8 nM; at EGFR T790M L858R, 9.2 nM.

Take `CCC(C)n1nc(N2CCNC2=O)c2cnc(Nc3ccnc(-c4cnn(S(=O)(=O)C5CC5)c4)n3)cc21` (stereo not drawn) [Example 25, 1-(1-(sec-Butyl)-6-((2-(1-(cyclopropylsulfonyl)-1H-pyrazol-4-yl)pyrimidin-4-yl)amino)-1H-pyrazolo[4,3-c]pyridin-3-yl)imidazolidin-2-one]: the EC50 in assay [1] (Homo sapiens, NCI-H1975, 72 h) amounted to 138 nM; in assay [2], 38.3 nM. Moreover, the Ki on EGFR del746-750 T790M came out at 2.5 nM; on EGFR T790M L858R, 1 nM.

For `CC(C)n1nc(NC2COC2)c2cnc(Nc3ccnc(-c4cnn(S(=O)(=O)C5CC5)c4)n3)cc21` [Example 35, N^6-(2-(1-(cyclopropylsulfonyl)-1H-pyrazol-4-yl)pyrimidin-4-yl)-1-isopropyl-N^3-(oxetan-3-yl)-1H-pyrazolo[4,3-c]pyridine-3,6-diamine], the concentration for a half-maximal effect (EC50) in assay [1] (Homo sapiens, NCI-H1975, 72 h) amounted to 167 nM; in assay [2] it was 33.5 nM. Moreover, the Ki at EGFR del746-750 T790M was found to be 0.5 nM; on EGFR T790M L858R, 0.7 nM.

As to `CC(C)n1nc(N2CC(O)C2)c2cnc(Nc3ccnc(-c4cnn(S(=O)(=O)C5CC5)c4)n3)cc21` [Example 37, 1-(6-(2-(1-(cyclopropylsulfonyl)-1H-pyrazol-4-yl)pyrimidin-4-ylamino)-1-isopropyl-1H-pyrazolo[4,3-c]pyridin-3-yl)azetidin-3-ol], the concentration for a half-maximal effect (EC50) in assay [1] (Homo sapiens, NCI-H1975, 72 h) was determined as 1120 nM; in assay [2], 91.7 nM. The Ki on EGFR del746-750 T790M is 0.8 nM; at EGFR T790M L858R, 1.4 nM.
